Data on one compound can be found in US9315464B1 (priority 2013, dated 2016).

Data set [1] deals with influenza A reporter assay system (viral UTR promoter / viral RNA-dependent RNA polymerase). It is filed as cell-based, Influenza A virus (mouse B16-F10 melanoma cells).
For data set [2], the system named is non-specific promoter (BAX promoter-driven luciferase) in HEK-293T cells. Put plainly: irrelevant promoter-containing cell-based reporter assay (luciferase driven by the BAX promoter, control). To be noted: BAX promoter luciferase in HEK-293T cells, indicator of non-specific toxicity.
The subject of data set [3] is influenza A/Puerto Rico/8/34 virus. Put plainly: Hemagglutination assay of influenza A replication in MDCK cells. In kind it is cell-based. The settings on record: 75 uM compound, influenza A/Puerto Rico/8/34 dilution series, FIG. 5A.

`O=C(Nc1ccc(S(=O)(=O)Nc2nccs2)cc1)c1cc(-c2ccccc2)nc2ccccc12` [A0259, 2-phenyl-N-{4-[(1,3-thiazol-2-yl)sulfamoyl]phenyl}quinoline-4-carboxamide]: in data set [1], the “inhibition of the influenza reporter system” value is recorded as “most dramatic inhibition”. Moreover, the “impact on a non-specific promoter” value in data set [2] is “smallest impact”. Also, the “inhibition of influenza A viral replication in recipient cells (hemagglutination, settling cell buttons)” value in data set [3] is listed as “viral dilutions below a thousand-fold from stock were inhibited from successfully replicating”.
